Reference: patent US20120245137A1 (Zalicus Pharmaceuticals Ltd., priority 2009, published 2012)
Read-outs that look alike come from different tables or passages of the source.

Experiments:
Format in all cases: cell-based
[1] = target: Human Cav 2.2 channels (Homo sapiens, UniProt Q00975); assay: Fluorescent assay for CaV2.2 channels using potassium depolarization (VIPR/FLIPR); conditions: FLIPR data; for CAv2.2 IC50 Ratio closed/inact.: ratio closed/inactivated IC50
Outline: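 Fluo-4 calcium fluorescence (480/535 nm) was recorded on VIPR or FLIPR after depolarization to 70 mM final potassium. Before this, cells were preincubated 30 min at 25 °C with compound in 4–30 mM potassium, so that state-dependent block could be assessed; the cells were HEK293 coexpressing Cav2.2, α2δ, β and Kir2.3.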

[2] = target: T-type calcium channel (Homo sapiens, UniProt O95180); assay: T-type channel blocking, FLIPR data (Table 6); conditions: for CAv3.2 IC50 Ratio closed/inact.: CAv3.2, ratio closed/inactivated IC50
Chain of T-type calcium channel (Homo sapiens, UniProt O95180) (O95180 whole entry): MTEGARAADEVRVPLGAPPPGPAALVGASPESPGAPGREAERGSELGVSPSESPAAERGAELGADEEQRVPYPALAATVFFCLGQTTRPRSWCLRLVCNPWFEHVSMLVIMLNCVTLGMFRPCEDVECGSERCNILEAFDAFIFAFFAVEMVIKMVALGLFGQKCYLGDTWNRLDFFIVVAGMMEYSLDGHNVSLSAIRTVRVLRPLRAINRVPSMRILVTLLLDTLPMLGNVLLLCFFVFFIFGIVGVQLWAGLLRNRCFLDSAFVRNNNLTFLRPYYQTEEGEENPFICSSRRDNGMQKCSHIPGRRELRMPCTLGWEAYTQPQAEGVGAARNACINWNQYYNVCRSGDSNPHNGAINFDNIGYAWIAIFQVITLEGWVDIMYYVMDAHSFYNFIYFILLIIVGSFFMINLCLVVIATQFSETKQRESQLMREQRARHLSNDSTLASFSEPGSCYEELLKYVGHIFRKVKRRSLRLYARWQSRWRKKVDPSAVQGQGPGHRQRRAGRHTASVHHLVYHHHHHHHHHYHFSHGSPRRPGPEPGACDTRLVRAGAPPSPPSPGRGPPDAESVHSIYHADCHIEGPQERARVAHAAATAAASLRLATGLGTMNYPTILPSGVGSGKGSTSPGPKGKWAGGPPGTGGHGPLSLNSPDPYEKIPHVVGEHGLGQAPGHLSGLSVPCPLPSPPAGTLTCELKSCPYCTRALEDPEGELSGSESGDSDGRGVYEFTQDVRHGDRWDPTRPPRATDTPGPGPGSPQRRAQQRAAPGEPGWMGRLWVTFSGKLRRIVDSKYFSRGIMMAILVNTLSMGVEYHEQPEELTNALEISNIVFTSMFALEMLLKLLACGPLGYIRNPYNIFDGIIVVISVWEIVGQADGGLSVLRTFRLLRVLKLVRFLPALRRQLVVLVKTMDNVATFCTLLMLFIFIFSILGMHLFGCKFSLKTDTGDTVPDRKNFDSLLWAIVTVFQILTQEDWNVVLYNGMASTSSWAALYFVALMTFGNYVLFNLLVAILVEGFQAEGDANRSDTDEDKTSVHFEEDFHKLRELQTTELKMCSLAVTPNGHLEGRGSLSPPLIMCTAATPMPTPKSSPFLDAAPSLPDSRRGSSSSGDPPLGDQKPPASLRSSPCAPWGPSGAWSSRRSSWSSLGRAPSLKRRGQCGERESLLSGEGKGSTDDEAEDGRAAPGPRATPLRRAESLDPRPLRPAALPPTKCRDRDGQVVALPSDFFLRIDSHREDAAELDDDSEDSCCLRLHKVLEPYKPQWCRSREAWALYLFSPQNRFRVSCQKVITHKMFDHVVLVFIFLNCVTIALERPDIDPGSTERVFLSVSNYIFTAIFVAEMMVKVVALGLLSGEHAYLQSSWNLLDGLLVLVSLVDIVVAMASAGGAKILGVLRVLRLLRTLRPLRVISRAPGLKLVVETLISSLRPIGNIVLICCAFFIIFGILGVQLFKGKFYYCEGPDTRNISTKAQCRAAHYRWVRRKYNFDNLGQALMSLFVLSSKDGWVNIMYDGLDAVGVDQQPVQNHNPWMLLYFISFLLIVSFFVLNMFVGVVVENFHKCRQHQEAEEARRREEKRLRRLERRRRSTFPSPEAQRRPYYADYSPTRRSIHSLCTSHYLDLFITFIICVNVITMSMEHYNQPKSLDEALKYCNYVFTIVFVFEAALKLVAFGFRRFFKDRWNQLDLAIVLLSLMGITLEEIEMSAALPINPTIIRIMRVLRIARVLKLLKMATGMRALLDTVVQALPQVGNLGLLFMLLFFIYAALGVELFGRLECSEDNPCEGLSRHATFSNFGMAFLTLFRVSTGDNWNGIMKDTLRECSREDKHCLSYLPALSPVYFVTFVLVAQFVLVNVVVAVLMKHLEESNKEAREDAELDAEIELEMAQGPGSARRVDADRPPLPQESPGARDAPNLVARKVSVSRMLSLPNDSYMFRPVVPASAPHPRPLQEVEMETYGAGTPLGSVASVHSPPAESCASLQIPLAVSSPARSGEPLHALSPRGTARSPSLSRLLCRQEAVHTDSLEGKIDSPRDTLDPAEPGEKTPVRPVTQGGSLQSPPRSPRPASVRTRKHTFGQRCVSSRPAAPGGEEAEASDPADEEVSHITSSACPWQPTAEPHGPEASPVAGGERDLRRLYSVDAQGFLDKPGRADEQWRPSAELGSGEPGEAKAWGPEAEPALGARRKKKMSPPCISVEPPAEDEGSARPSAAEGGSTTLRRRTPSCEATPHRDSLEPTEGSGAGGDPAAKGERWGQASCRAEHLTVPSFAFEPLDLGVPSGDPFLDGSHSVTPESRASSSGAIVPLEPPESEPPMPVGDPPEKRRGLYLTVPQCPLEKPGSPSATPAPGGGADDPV
Excerpt: (§1) Another method, high-throughput spectrophotometric assay, utilizes loading of the cell lines with a fluorescent dye sensitive to intracellular calcium concentration and subsequent examination of the effects of compounds on the ability of depolarization by potassium chloride or other means to alter intracellular calcium levels.

[3] = target: T-type calcium channel (Homo sapiens, UniProt O43497); assay: T-type channel blocking, FLIPR data (Table 6); conditions: CAv3.1
Chain of T-type calcium channel (Homo sapiens, UniProt O43497) (O43497 whole entry): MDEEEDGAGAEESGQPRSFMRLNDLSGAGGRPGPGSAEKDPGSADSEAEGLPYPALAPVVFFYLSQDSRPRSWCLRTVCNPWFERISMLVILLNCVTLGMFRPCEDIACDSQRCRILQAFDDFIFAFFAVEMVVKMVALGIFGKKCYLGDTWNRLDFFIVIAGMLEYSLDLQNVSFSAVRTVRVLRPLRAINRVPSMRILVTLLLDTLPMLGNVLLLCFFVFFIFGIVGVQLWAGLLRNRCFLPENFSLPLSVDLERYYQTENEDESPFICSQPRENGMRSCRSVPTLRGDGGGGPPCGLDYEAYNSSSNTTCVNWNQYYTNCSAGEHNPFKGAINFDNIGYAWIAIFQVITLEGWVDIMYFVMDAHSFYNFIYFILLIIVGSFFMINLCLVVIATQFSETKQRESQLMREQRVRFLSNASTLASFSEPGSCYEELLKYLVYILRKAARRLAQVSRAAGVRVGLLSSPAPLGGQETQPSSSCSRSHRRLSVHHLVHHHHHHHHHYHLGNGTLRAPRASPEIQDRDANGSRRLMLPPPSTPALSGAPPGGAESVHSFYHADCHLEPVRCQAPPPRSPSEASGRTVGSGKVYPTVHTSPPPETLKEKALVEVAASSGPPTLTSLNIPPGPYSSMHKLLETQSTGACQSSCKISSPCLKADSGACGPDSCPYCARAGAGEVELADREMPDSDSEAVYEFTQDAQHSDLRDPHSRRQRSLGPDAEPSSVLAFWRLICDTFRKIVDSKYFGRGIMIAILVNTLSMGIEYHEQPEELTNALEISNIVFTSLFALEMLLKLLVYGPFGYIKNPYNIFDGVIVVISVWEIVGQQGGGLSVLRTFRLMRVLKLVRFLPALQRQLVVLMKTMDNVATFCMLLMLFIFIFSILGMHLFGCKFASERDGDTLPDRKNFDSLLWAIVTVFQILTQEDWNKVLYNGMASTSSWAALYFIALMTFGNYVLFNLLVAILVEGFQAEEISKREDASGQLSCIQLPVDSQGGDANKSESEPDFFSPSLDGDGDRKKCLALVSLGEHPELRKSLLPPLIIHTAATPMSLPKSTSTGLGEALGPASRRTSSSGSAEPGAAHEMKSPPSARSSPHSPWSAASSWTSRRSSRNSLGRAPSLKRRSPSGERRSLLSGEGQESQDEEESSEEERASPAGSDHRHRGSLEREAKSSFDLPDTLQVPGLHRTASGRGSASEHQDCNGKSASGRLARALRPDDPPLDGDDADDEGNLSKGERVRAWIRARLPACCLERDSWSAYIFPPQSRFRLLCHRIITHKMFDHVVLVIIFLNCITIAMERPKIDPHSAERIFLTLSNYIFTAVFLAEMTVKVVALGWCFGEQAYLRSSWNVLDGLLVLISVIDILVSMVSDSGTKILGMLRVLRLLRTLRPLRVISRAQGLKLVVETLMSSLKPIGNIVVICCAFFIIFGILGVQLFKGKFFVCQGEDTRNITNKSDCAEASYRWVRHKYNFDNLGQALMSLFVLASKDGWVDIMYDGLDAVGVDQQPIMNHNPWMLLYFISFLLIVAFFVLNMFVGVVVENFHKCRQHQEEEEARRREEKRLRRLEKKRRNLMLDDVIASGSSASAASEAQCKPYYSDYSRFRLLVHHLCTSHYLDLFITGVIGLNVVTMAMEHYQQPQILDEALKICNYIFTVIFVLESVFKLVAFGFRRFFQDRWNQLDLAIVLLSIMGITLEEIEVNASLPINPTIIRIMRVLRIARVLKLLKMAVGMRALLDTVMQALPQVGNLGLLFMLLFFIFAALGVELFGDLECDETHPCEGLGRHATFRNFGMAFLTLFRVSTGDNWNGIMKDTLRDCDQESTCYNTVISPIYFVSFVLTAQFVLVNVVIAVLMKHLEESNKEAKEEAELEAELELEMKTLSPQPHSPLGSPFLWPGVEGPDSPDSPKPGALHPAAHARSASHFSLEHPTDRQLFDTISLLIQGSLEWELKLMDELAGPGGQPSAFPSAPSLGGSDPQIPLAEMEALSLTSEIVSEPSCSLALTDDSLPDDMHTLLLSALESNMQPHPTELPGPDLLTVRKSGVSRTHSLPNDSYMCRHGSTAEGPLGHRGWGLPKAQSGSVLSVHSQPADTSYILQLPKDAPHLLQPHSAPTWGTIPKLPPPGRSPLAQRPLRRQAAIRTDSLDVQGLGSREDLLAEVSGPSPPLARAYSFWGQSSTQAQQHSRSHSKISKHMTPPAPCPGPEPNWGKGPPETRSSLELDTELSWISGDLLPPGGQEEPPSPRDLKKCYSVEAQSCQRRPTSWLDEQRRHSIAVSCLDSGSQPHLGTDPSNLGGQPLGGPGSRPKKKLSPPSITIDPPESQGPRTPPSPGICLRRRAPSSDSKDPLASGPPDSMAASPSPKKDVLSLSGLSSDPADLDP
Excerpt: as §1

[4] = target: CAv1.2 (Homo sapiens, UniProt Q13936); assay: FLIPR data, CAv1.2 channel blocking (Table 6); conditions: for CAv1.2 IC50 Ratio closed/inact.: ratio closed/inactivated IC50
[5] = closed state, read-out: CAv2.2 IC50 Closed
[6] = inactivated state, read-out: CAv2.2 IC50 Inact.
[7] = CAv3.2, closed state, read-out: CAv3.2 IC50 Closed
[8] = CAv3.2, inactivated state, read-out: CAv3.2 IC50 Inact.
[9] = closed state, read-out: CAv1.2 IC50 Closed
[10] = inactivated state, read-out: CAv1.2 IC50 Inact.

| SMILES | IC50 [1, 5] [µM] | IC50 [1, 6] [µM] | CAv2.2 IC50 Ratio closed/inact. [1] | IC50 [2, 7] [µM] | IC50 [2, 8] [µM] | CAv3.2 IC50 Ratio closed/inact. [2] | IC50 [3] [µM] | IC50 [4, 9] [µM] | IC50 [4, 10] [µM] | CAv1.2 IC50 Ratio closed/inact. [4] |
| --- | --- | --- | --- | --- | --- | --- | --- | --- | --- | --- |
| CC(C)([C@H]1C[C@@H](NS(=O)(=O)c2ccc(C(F)(F)F)nc2)C1)S(=O)(=O)c1cc(F)cc(C(F)(F)F)c1 [Compound 602] | 6.08 | 0.75 | 8.1 | ≥ 10 | 5.38 | 1.9 | 6.36 | 9.77 | 3.94 | 2.5 |
| CC(C)([C@H]1C[C@@H](NS(=O)(=O)c2ccc(OC(F)(F)F)cc2)C1)S(=O)(=O)c1cc(F)cc(C(F)(F)F)c1 [Compound 603] | 4.17 | 0.61 | 6.8 | ≥ 10 | 6.46 | 1.5 | 5.48 | 6.92 | 2.12 | 3.3 |
| CC(C)([C@H]1C[C@H](NS(=O)(=O)c2ccc(C(F)(F)F)cc2)C1)S(=O)(=O)c1cc(F)cc(C(F)(F)F)c1 [Compound 605] | 5.4 | 0.87 | 6.2 | 4.79 | 2.21 | 2.2 | 4.35 | 5.29 | 1.92 | 2.8 |
| CC(C)([C@H]1C[C@H](NS(=O)(=O)c2ccc(F)c(Cl)c2)C1)S(=O)(=O)c1cc(F)cc(C(F)(F)F)c1 [Compound 606] | 2.51 | 0.92 | 2.7 | 8.53 | 3.57 | 2.4 | 4.17 | 5.65 | 2.76 | 2 |
| CC(C)([C@H]1C[C@H](NS(=O)(=O)c2ccc(Cl)c(F)c2)C1)S(=O)(=O)c1cc(F)cc(C(F)(F)F)c1 [Compound 607] | 2.97 | 1.15 | 2.6 | ≥ 10 | 3.73 | 2.7 | 5.43 | 7.78 | 2.99 | 2.6 |
| CC(C)([C@H]1C[C@H](NS(=O)(=O)c2ccc(C(F)(F)F)nc2)C1)S(=O)(=O)c1cc(F)cc(C(F)(F)F)c1 [Compound 609] | 4.17 | 1.17 | 3.6 | ≥ 10 | 2.54 | 3.9 | 9.91 | 9.99 | 4.32 | 2.3 |
| Cc1nc(S(=O)(=O)N[C@H]2C[C@H](C(C)(C)S(=O)(=O)c3cc(F)cc(C(F)(F)F)c3)C2)cn1C [Compound 611] | 10 | 9.14 | 1.1 |  | 10 |  | ≥ 10 | ≥ 10 | ≥ 10 |  |
| CC(C)(C1CC(CNC(=O)c2ccc(C(F)(F)F)cc2S(C)(=O)=O)C1)S(=O)(=O)c1cccc(C(F)(F)F)c1 (stereo not shown) [Compound 612] | 8.54 | 0.54 | 15.8 | 9.28 | 3.95 | 2.3 | ≥ 10 | ≥ 10 | 4.17 | 2.4 |
| CC(C)S(=O)(=O)c1cc(C(F)(F)F)cnc1C(=O)NCC1CC(C(C)(C)S(=O)(=O)c2cccc(C(F)(F)F)c2)C1 (stereo not shown) [Compound 613] | 6.51 | 0.35 | 18.6 | 9.16 | 5.45 | 1.7 | ≥ 10 | 8 | 5.92 | 1.4 |
| CC(C)(C1CC(CNC(=O)c2cc(C(F)(F)F)n[nH]2)C1)S(=O)(=O)c1cccc(C(F)(F)F)c1 (stereo not shown) [Compound 614] | 2.87 | 0.49 | 5.9 | 7.2 | 3.2 | 2.3 | ≥ 10 | 8.03 | 2.41 | 3.3 |
| CC(C)(C1CC(CNC(=O)c2cnc(C(F)(F)F)nc2)C1)S(=O)(=O)c1cccc(C(F)(F)F)c1 (stereo not shown) [Compound 616] | 4.81 | 0.61 | 7.9 | ≥ 10 | 6.4 | 1.6 | ≥ 10 | ≥ 10 | 2.81 | 3.6 |
| CC(C)(C1CC(CNC(=O)c2ccc(F)c(Cl)c2)C1)S(=O)(=O)c1cccc(C(F)(F)F)c1 (stereo not shown) [Compound 618] | 1.3 | 0.12 | 10.8 | 1.99 | 0.35 | 5.7 | 2.47 | 4.08 | 0.3 | 13.6 |
| CC(C)(C1CC(CNC(=O)c2ccc(OCC(F)(F)F)nc2)C1)S(=O)(=O)c1cccc(C(F)(F)F)c1 (stereo not shown) [Compound 619] | 1.66 | 0.26 | 6.4 | 3.29 | 1.27 | 2.6 | 5.12 | 4.42 | 1.36 | 3.3 |
| CC(C)(C1CC(CNC(=O)c2ccnc(C(F)(F)F)c2)C1)S(=O)(=O)c1cccc(C(F)(F)F)c1 (stereo not shown) [Compound 620] | 2.87 | 0.39 | 7.4 | 5.52 | 1.39 | 4 | 8.71 | 9.99 | 0.67 | 14.9 |

The remaining molecules from weak to strong by IC50 [1, 5], led by results:

| IC50 [1, 5] [µM] | IC50 [1, 6] [µM] | CAv2.2 IC50 Ratio closed/inact. [1] | IC50 [2, 7] [µM] | IC50 [2, 8] [µM] | CAv3.2 IC50 Ratio closed/inact. [2] | IC50 [3] [µM] | SMILES | IC50 [4, 9] [µM] | IC50 [4, 10] [µM] | CAv1.2 IC50 Ratio closed/inact. [4] |
| --- | --- | --- | --- | --- | --- | --- | --- | --- | --- | --- |
| 7.07 | 0.9 | 7.9 | ≥ 10 | 4.97 | 2 | 3.82 | CC(C)([C@H]1C[C@@H](NS(=O)(=O)c2ccc(F)c(C(F)(F)F)c2)C1)S(=O)(=O)c1cc(F)cc(C(F)(F)F)c1 [Compound 601] | 8.84 | 2.86 | 3.1 |
| 6.14 | 1.03 | 6 | ≥ 10 | 4.4 | 2.3 | 5.59 | CC(C)([C@H]1C[C@@H](NS(=O)(=O)c2ccc(F)c(Cl)c2)C1)S(=O)(=O)c1cc(F)cc(C(F)(F)F)c1 [Compound 599] | 8.85 | 3.05 | 2.9 |
| 5.25 | 0.82 | 6.4 | ≥ 10 | 5.08 | 2 | 3.57 | CC(C)([C@H]1C[C@@H](NS(=O)(=O)c2ccc(Cl)c(F)c2)C1)S(=O)(=O)c1cc(F)cc(C(F)(F)F)c1 [Compound 600] | 6.93 | 2.22 | 3.1 |
| 4.03 | 1.1 | 3.7 | ≥ 10 | 2.58 | 3.9 | 4.92 | CC(C)([C@H]1C[C@H](NS(=O)(=O)c2ccc(F)c(C(F)(F)F)c2)C1)S(=O)(=O)c1cc(F)cc(C(F)(F)F)c1 [Compound 608] | 7.75 | 2.45 | 3.2 |
| 3.58 | 1.13 | 3.2 | ≥ 10 | 1.43 | 7 | 5.3 | CC(C)([C@H]1C[C@H](NS(=O)(=O)c2ccc(OC(F)(F)F)cc2)C1)S(=O)(=O)c1cc(F)cc(C(F)(F)F)c1 [Compound 610] | 8.93 | 2.93 | 3 |
| 1.83 | 0.15 | 12.2 | 1.53 | 0.2 | 7.7 | 1.47 | CC(C)(C1CC(CNC(=O)c2ccc(Cl)c(OC(F)(F)F)c2)C1)S(=O)(=O)c1cccc(C(F)(F)F)c1 (stereo not shown) [Compound 621] | 3.39 | 0.24 | 14.1 |
| 1.37 | 0.25 | 5.5 | ≥ 10 | 7.17 | 1.4 | ≥ 10 | CC(C)(C1CC(CNC(=O)c2ccnc(C(F)(F)F)n2)C1)S(=O)(=O)c1cccc(C(F)(F)F)c1 (stereo not shown) [Compound 615] | ≥ 10 | 5.61 | 1.8 |
| 1.34 | 0.15 | 8.9 | 2.69 | 0.81 | 3.3 | 8.03 | CC(C)(C1CC(CNC(=O)c2ccc(Cl)c(F)c2)C1)S(=O)(=O)c1cccc(C(F)(F)F)c1 (stereo not shown) [Compound 617] | 4.05 | 0.38 | 10.7 |
